ChEMBL document CHEMBL1139626, “Total asymmetric synthesis of (-)-conduramine B-1 and of its enantiomer. N-Benzyl derivatives of conduramine B-1 are beta-glucosidase inhibitors” (Bioorg Med Chem Lett, 2005)
The source made the active and inactive calls. The rule behind the calls is not given here.

Key:
[1] = Inhibitory concentration against Beta Glucosidase from Almonds; parameters: species or system Prunus dulcis
[2] = target: T1, Glucoamylase 1 (Rhizopus oryzae) (UniProt P07683); assay: Inhibition against Amyloglucosidase from Rhizopus mold at 1 mM; (ni=no inhibition)
T1 sequence (whole entry): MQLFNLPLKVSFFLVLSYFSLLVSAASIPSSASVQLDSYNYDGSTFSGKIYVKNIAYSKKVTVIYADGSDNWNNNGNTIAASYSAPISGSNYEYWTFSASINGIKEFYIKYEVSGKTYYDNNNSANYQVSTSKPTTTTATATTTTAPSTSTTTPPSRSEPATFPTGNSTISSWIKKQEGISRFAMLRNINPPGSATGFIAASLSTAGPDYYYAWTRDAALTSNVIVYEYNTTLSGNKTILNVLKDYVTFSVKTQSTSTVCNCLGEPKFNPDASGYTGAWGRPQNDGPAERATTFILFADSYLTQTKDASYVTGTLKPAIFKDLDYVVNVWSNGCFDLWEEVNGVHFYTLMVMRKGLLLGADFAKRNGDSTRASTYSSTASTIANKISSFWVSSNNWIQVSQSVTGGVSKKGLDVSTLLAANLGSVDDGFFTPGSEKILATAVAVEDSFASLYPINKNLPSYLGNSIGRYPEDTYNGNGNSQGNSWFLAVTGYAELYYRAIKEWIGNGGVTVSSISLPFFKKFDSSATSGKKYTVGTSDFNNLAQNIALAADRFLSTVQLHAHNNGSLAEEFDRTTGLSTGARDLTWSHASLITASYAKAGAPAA

Prunus dulcis [3] = assay: Percent inhibition against Beta Glucosidase from Almonds at 1 mM
[4] = target: T2, Exo-1,4-beta-xylosidase xlnD (Aspergillus niger) (UniProt O00089); assay: Inhibition against Beta-xylosidase from Aspergillus niger at 1 mM; (ni=no inhibition)
T2 sequence (whole entry): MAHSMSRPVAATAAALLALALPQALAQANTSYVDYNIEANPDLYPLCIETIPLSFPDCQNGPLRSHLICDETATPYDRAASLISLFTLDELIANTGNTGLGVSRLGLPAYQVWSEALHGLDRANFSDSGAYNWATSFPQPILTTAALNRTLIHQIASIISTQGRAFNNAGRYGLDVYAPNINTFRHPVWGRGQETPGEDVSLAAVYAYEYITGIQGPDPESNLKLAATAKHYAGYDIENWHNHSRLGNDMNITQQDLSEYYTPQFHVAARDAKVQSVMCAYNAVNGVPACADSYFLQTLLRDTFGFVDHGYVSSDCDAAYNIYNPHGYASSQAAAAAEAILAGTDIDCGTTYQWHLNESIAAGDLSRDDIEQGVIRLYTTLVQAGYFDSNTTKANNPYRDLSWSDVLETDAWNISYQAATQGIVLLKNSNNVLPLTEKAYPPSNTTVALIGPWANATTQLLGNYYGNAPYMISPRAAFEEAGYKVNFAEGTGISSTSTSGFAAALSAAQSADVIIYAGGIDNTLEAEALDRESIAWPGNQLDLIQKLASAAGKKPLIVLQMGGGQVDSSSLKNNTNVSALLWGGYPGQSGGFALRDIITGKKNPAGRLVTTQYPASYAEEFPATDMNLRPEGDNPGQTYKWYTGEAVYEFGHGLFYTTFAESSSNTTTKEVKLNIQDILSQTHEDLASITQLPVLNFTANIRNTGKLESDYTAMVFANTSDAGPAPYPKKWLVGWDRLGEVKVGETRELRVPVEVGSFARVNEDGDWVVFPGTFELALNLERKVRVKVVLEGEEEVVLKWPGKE

[5] = target: Glucoamylase (Aspergillus niger) (UniProt P69328); assay: Inhibition against Amyloglucosidase from Aspergillus niger at 1 mM; (ni=no inhibition)
Glucoamylase (Aspergillus niger), sequence (P69328 whole entry): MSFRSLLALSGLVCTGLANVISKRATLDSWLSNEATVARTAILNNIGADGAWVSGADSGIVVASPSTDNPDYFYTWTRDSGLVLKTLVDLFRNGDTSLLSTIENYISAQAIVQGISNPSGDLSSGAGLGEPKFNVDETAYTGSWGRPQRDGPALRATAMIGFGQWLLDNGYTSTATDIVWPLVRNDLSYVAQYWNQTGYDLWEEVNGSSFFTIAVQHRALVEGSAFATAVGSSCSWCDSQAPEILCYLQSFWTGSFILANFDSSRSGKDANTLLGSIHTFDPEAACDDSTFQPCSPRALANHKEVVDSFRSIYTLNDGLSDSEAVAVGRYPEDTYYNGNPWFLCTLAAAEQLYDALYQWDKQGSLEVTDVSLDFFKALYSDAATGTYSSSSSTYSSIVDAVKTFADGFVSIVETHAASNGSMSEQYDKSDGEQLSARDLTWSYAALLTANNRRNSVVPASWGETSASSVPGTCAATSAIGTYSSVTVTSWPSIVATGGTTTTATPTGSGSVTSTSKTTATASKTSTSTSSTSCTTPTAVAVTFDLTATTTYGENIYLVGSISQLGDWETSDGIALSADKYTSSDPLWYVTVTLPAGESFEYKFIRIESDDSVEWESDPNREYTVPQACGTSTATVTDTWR

[6] = target: T3, Alpha-glucosidase (Oryza sativa Japonica Group) (UniProt Q9LGC6); assay: Inhibition against Alpha Glucosidase from rice at 1 mM; (ni=no inhibition)
T3 sequence (whole entry): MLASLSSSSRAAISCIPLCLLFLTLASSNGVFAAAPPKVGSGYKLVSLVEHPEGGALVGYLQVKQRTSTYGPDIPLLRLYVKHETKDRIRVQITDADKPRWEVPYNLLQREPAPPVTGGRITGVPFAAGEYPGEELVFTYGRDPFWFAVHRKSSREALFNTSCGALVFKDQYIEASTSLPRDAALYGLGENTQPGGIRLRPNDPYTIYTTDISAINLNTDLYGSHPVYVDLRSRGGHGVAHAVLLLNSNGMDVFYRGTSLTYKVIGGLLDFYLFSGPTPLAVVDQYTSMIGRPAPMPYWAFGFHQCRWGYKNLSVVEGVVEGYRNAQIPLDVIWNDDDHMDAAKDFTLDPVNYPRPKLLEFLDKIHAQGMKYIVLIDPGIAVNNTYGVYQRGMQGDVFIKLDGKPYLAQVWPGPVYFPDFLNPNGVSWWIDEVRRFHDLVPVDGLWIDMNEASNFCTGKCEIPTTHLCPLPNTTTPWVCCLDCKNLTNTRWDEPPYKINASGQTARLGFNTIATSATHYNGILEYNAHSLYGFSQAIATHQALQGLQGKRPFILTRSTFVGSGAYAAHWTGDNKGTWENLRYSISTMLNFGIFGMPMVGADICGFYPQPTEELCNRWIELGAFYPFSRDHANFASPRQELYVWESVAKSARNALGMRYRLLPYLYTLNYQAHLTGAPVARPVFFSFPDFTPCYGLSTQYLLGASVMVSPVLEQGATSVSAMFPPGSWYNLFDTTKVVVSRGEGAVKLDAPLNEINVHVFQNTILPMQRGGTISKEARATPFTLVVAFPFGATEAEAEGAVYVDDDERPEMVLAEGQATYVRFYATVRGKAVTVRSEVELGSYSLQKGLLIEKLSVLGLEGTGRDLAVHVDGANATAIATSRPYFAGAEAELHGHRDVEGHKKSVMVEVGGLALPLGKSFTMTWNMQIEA

[7] = Inhibition against Alpha Glucosidase from yeast at 1 mM; (ni=no inhibition)
[8] = target: Beta-glucosidase A (Caldicellulosiruptor saccharolyticus) (UniProt P10482); assay: Percent inhibition against Beta Glucosidase from Caldocellum saccharolyticum at 1 mM
Beta-glucosidase A (Caldicellulosiruptor saccharolyticus), sequence (P10482 whole entry): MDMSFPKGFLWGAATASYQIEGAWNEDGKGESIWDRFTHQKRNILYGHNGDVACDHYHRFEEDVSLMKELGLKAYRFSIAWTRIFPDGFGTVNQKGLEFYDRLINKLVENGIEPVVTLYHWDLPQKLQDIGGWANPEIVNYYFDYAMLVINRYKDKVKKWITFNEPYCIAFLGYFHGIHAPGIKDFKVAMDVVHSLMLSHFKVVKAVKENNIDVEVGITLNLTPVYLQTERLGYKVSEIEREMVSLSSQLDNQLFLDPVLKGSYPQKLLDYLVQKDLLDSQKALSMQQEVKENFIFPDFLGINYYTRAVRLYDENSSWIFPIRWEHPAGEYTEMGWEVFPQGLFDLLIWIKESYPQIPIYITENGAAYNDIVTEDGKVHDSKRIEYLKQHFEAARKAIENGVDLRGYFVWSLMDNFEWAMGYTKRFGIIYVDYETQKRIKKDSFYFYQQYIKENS

Prunus dulcis [9] = assay: Inhibition against Beta Glucosidase from Almonds at 1 mM; (ni=no inhibition)
[10] = target: Beta-glucosidase A (Caldicellulosiruptor saccharolyticus) (UniProt P10482); assay: Inhibition against Beta Glucosidase from Caldocellum saccharolyticum at 1 mM; (ni=no inhibition)
[11] = target: T1, Glucoamylase 1 (Rhizopus oryzae); assay: Percent inhibition against Amyloglucosidase from Rhizopus mold at 1 mM
[12] = target: Glucoamylase (Aspergillus niger) (UniProt P69328); assay: Percent inhibition against Amyloglucosidase from Aspergillus niger at 1 mM concentration
[13] = Inhibitory activity against Beta Glucosidase from Almonds; parameters: species or system Prunus dulcis

SMILES: OC1C=CC(NCCc2ccccc2)C(O)C1O (racemic)
- IC50 [1]: 32 µM
- inhibition [2]: inactive
- inhibition (Prunus dulcis [3]): 86%
- inhibition [4]: inactive
- inhibition [5]: inactive
- inhibition [6]: inactive
- inhibition [7]: inactive

SMILES: CCCCCCNC1C=CC(O)C(O)C1O (racemic)
- IC50 [1]: 32 µM
- inhibition [2]: inactive
- inhibition (Prunus dulcis [3]): 92%
- inhibition [4]: inactive
- inhibition [5]: inactive
- inhibition [6]: inactive
- inhibition [7]: inactive

SMILES: CCCCCCCCN(CCCCCCCC)C1C=CC(O)C(O)C1O (racemic)
- inhibition [2]: inactive
- inhibition [8]: 83%
- inhibition [4]: inactive
- inhibition [5]: inactive
- inhibition [6]: inactive
- inhibition [7]: inactive
- inhibition (Prunus dulcis [9]): inactive

SMILES: CCCN(CCC)C1C=CC(O)C(O)C1O (racemic)
- inhibition [2]: inactive
- inhibition (Prunus dulcis [3]): 36%
- inhibition [4]: inactive
- inhibition [5]: inactive
- inhibition [6]: inactive
- inhibition [7]: inactive
- inhibition [10]: inactive

SMILES: OC1C=CC(N(CCc2ccccc2)CCc2ccccc2)C(O)C1O (racemic)
- inhibition [2]: inactive
- inhibition (Prunus dulcis [3]): 36%
- inhibition [4]: inactive
- inhibition [5]: inactive
- inhibition [6]: inactive
- inhibition [7]: inactive
- inhibition [10]: inactive

SMILES: COc1cc(O)c(CNC2C=CC(O)C(O)C2O)c(Br)c1 (single isomer, unassigned)
- inhibition [2]: inactive
- inhibition [4]: inactive
- inhibition [5]: inactive
- inhibition [6]: inactive
- inhibition [7]: inactive
- inhibition (Prunus dulcis [9]): inactive
- inhibition [10]: inactive

SMILES: NC1C=CC(O)C(O)C1O (single isomer, unassigned; (-))
- inhibition [2]: inactive
- inhibition [4]: inactive
- inhibition [5]: inactive
- inhibition [6]: inactive
- inhibition [7]: inactive
- inhibition (Prunus dulcis [9]): inactive
- inhibition [10]: inactive

SMILES: COc1ccc(CNC2C=CC(O)C(O)C2O)cc1 (stereo in doubt)
- inhibition [11]: 72%
- inhibition (Prunus dulcis [3]): 51%
- inhibition [12]: 63%
- inhibition [4]: inactive
- inhibition [6]: inactive
- inhibition [7]: inactive
- inhibition [10]: inactive

SMILES: OC1C=CC(NCc2ccc(-c3ccccc3)cc2)C(O)C1O (stereo in doubt)
- inhibition [2]: inactive
- inhibition (Prunus dulcis [3]): 56%
- inhibition [4]: inactive
- inhibition [5]: inactive
- inhibition [6]: inactive
- inhibition [7]: inactive
- inhibition [10]: inactive

SMILES: OC1C=CC(NCc2ccc(Cl)cc2)C(O)C1O (stereo in doubt)
- inhibition [11]: 72%
- inhibition (Prunus dulcis [3]): 51%
- inhibition [12]: 45%
- inhibition [4]: inactive
- inhibition [6]: inactive
- inhibition [7]: inactive
- inhibition [10]: inactive

SMILES: OC1C=CC(NCc2ccc(Oc3ccccc3)cc2)C(O)C1O (stereo in doubt)
- inhibition [2]: inactive
- inhibition [4]: inactive
- inhibition [5]: inactive
- inhibition [6]: inactive
- inhibition [7]: inactive
- inhibition (Prunus dulcis [9]): inactive
- inhibition [10]: inactive

SMILES: OC1C=CC(NCc2ccccc2)C(O)C1O (stereo in doubt)
- inhibition [11]: 72%
- inhibition (Prunus dulcis [3]): 51%
- inhibition [12]: 63%
- inhibition [4]: inactive
- inhibition [6]: inactive
- inhibition [7]: inactive
- inhibition [10]: inactive

SMILES: Oc1ccc(CNC2C=CC(O)C(O)C2O)cc1 (stereo in doubt)
- inhibition [11]: 85%
- inhibition (Prunus dulcis [3]): 26%
- inhibition [12]: 94%
- inhibition [4]: inactive
- inhibition [6]: inactive
- inhibition [7]: inactive
- inhibition [10]: inactive

SMILES: Oc1ccccc1CNC1C=CC(O)C(O)C1O (stereo in doubt)
- inhibition [11]: 41%
- inhibition [12]: 42%
- inhibition [4]: inactive
- inhibition [6]: inactive
- inhibition [7]: inactive
- inhibition (Prunus dulcis [9]): inactive
- inhibition [10]: inactive

SMILES: OC1C=CC(NCc2ccccc2)C(O)C1O (stereo in doubt; 4e)
- Ki [13]: 10 µM
- IC50 [1]: 32 µM

SMILES: Oc1ccc(CNC2C=CC(O)C(O)C2O)cc1 (stereo in doubt; 4f)
- IC50 [1]: 72 µM

SMILES: COc1ccc(CNC2C=CC(O)C(O)C2O)cc1 (stereo in doubt; 4g)
- Ki [13]: 25 µM
- IC50 [1]: 52 µM

SMILES: OC1C=CC(NCc2ccc(Cl)cc2)C(O)C1O (stereo in doubt; 4h)
- inhibition [2]: inactive
- inhibition [8]: 84%
- inhibition (Prunus dulcis [3]): 96%
- inhibition [4]: inactive
- inhibition [5]: inactive
- inhibition [6]: inactive
- inhibition [7]: inactive

SMILES: OC1C=CC(NCc2ccc(-c3ccccc3)cc2)C(O)C1O (stereo in doubt; 4i)
- inhibition [2]: inactive
- inhibition [8]: 94%
- inhibition (Prunus dulcis [3]): 97%
- inhibition [4]: inactive
- inhibition [5]: inactive
- inhibition [6]: inactive
- inhibition [7]: inactive

SMILES: OC1C=CC(NCc2ccc(Oc3ccccc3)cc2)C(O)C1O (stereo in doubt; 4j)
- inhibition [2]: inactive
- inhibition [8]: 71%
- inhibition (Prunus dulcis [3]): 97%
- inhibition [4]: inactive
- inhibition [5]: inactive
- inhibition [6]: inactive
- inhibition [7]: inactive

SMILES: COc1cc(O)c(CNC2C=CC(O)C(O)C2O)c(Br)c1 (stereo in doubt; 4l)
- inhibition [2]: inactive
- inhibition [8]: 43%
- inhibition [4]: inactive
- inhibition [5]: inactive
- inhibition [6]: inactive
- inhibition [7]: inactive
- inhibition (Prunus dulcis [9]): inactive

SMILES: NC1C=CC(O)C(O)C1O (stereo in doubt; (+)-3)
- inhibition [2]: inactive
- inhibition [4]: inactive
- inhibition [5]: inactive
- inhibition [6]: inactive
- inhibition [7]: inactive
- inhibition (Prunus dulcis [9]): inactive
- inhibition [10]: inactive
